Patent US20230174649A1, “PHARMACEUTICAL COMPOSITIONS CONTAINING ANTI-CD47 ANTIBODIES” (I-MAB BIOPHARMA US LIMITED, priority 2020, published 2023)
Where “and” joins values, the source holds several entries; their conditions need not be identical. Equal values may be shown once.

Legend:
Assay type in all cases: cell-based, Human
macrophages = assay: Macrophage Viability Assay (CellTiter-Glo); settings: for Macrophage viability (CellTiter-Glo Luminescent Cell Viability Assay): 16 hours, three replicate lines
Protocol: Then, the monocytes isolated by MACS were subsequently cultured in fresh complete medium supplemented with recombinant human granulocyte-macrophage colony-stimulating factor GM-CSF (50 ng/ml) and human recombinant IL-4 (35 ng/ml) to activate differentiated macrophages. After 6 days of culture (on day 7), cells were harvested, pooled together and counted for next use.
The cells from Example 2 were plated into a 96-well flat bottom plate at a density of 0.05×10^6 cells/well. After 2 hours of incubation, the macrophages were well attached to the plate. Then selected small molecule therapeutic agents were added to the well and cocultured for 16 hours. On day 8, macrophage viability was assessed by CellTiter-Glo® Luminescent Cell Viability Assay, according to the manufacture's instruction.

Toledo Cells = assay: FACS-based phagocytosis assay, macrophages cocultured with Toledo cells
Protocol: FACS-based phagocytosis assays were performed to evaluate the phagocytic abilities of macrophages.
Toledo Cells (a tumor cell line, as a target) were labelled with CellTrace™ Far Red and plated into 96-well plate at a density of 0.15×10^6 cells/well for 12 hours. The Macrophages were prepared as discussed above and then labelled with CellTrace Violet. Next, the macrophages were added into the plate as an effector at an effector:target (Toledo) ratio of 1:3, giving a final density of macrophages at 0.05×10^6 cells/well. Macrophages and tumor cells were cocultured for 2-6 h at 37° C. in the presence of the indicated treatments (small molecule therapeutic agents, CD47 antibody, CD20 antibody or combinations). The incubation time depending on the phagocytosis rate, expecting phagocytosis of 5-20% cells.
Then, cells were acquired and data were analyzed.

Calreticulin = assay: FACS analysis of expression level of calreticulin on tumor cell surface; settings: Toledo cells, 12 hours
Protocol: (§1) For FACS analysis, on the day of analysis (day 1), Toledo cells were seeded into 96 well plate and cultured at a density of 0.2×10^6 cells/well. Then the cells were treated with the selected small molecule therapeutic agents for 12 hours.
(§2) On day 2, cells were harvested, washed twice and then re-suspended in 100 uL FACS buffer subject to FACS analysis. For detection of the expression of calreticulin and CD47, cells were incubated with anti-calreticulin antibody and commercially available anti-CD47 antibody (BD Biosciences, Catalog number: 561249) in dark at 4° C. for 30 mins.
(§3) Then, the cells were subject to FACS analysis. Data was acquired and analyzed.

CD47 = assay: FACS analysis of expression level of CD47 on tumor cell surface; settings: Toledo cells, 12 hours
Protocol: as §1, §2, §3

## Cn1c(CCCC(=O)O)nc2cc(N(CCCl)CCCl)ccc21 [Bendamustine]
macrophages; Cpd 0.002 uM
  Macrophage viability (CellTiter-Glo Luminescent Cell Viability Assay): 6292 and 6220 and 5908
macrophages; Cpd 0.008 uM
  Macrophage viability (CellTiter-Glo Luminescent Cell Viability Assay): 6248 and 6356 and 6028
macrophages; Cpd 0.04 uM
  Macrophage viability (CellTiter-Glo Luminescent Cell Viability Assay): 6248 and 6124 and 5788
macrophages; Cpd 0.2 uM
  Macrophage viability (CellTiter-Glo Luminescent Cell Viability Assay): 6320 and 6664 and 5768
macrophages; Cpd 1 uM
  Macrophage viability (CellTiter-Glo Luminescent Cell Viability Assay): 6220 and 6200 and 5436
macrophages; Cpd 5 uM
  Macrophage viability (CellTiter-Glo Luminescent Cell Viability Assay): 6424 and 6308 and 5064
macrophages; Cpd 25 uM
  Macrophage viability (CellTiter-Glo Luminescent Cell Viability Assay): 5884 and 5724 and 4340
macrophages; Cpd 50 uM
  Macrophage viability (CellTiter-Glo Luminescent Cell Viability Assay): 5500 and 5736 and 4112
macrophages; dose as high as 50 μM
  toxicity to macrophages: showed toxicity
macrophages; dose lower than 10 μM
  toxicity to macrophages: little toxic
Toledo Cells; Cpd 0.0016 uM, T4J = 0, R = 0
  macrophage phagocytosis (untreated = 1.00): 1.06
Toledo Cells; Cpd 0.0016 uM, T4J = 0, R = 0.01 ug/ml
  macrophage phagocytosis (untreated = 1.00): 1.58
Toledo Cells; Cpd 0.0016 uM, T4J = 0.1 ug/ml, R = 0
  macrophage phagocytosis (untreated = 1.00): 2.53
Toledo Cells; Cpd 0.0016 uM, T4J = 0.1 ug/ml, R = 0.01 ug/ml
  macrophage phagocytosis (untreated = 1.00): 3.29
Toledo Cells; Cpd 0.008 uM, T4J = 0, R = 0
  macrophage phagocytosis (untreated = 1.00): 1.00
Toledo Cells; Cpd 0.008 uM, T4J = 0, R = 0.01 ug/ml
  macrophage phagocytosis (untreated = 1.00): 1.52
Toledo Cells; Cpd 0.008 uM, T4J = 0.1 ug/ml, R = 0
  macrophage phagocytosis (untreated = 1.00): 2.67
Toledo Cells; Cpd 0.008 uM, T4J = 0.1 ug/ml, R = 0.01 ug/ml
  macrophage phagocytosis (untreated = 1.00): 3.26
Toledo Cells; Cpd 0.04 uM, T4J = 0, R = 0
  macrophage phagocytosis (untreated = 1.00): 0.98
Toledo Cells; Cpd 0.04 uM, T4J = 0, R = 0.01 ug/ml
  macrophage phagocytosis (untreated = 1.00): 1.53
Toledo Cells; Cpd 0.04 uM, T4J = 0.1 ug/ml, R = 0
  macrophage phagocytosis (untreated = 1.00): 2.57
Toledo Cells; Cpd 0.04 uM, T4J = 0.1 ug/ml, R = 0.01 ug/ml
  macrophage phagocytosis (untreated = 1.00): 3.19
Toledo Cells; Cpd 0.2 uM, T4J = 0, R = 0
  macrophage phagocytosis (untreated = 1.00): 0.96
Toledo Cells; Cpd 0.2 uM, T4J = 0, R = 0.01 ug/ml
  macrophage phagocytosis (untreated = 1.00): 1.41
Toledo Cells; Cpd 0.2 uM, T4J = 0.1 ug/ml, R = 0
  macrophage phagocytosis (untreated = 1.00): 2.51
Toledo Cells; Cpd 0.2 uM, T4J = 0.1 ug/ml, R = 0.01 ug/ml
  macrophage phagocytosis (untreated = 1.00): 3.10
Toledo Cells; Cpd 1 uM, T4J = 0, R = 0
  macrophage phagocytosis (untreated = 1.00): 1.03
Toledo Cells; Cpd 1 uM, T4J = 0, R = 0.01 ug/ml
  macrophage phagocytosis (untreated = 1.00): 1.46
Toledo Cells; Cpd 1 uM, T4J = 0.1 ug/ml, R = 0
  macrophage phagocytosis (untreated = 1.00): 2.47
Toledo Cells; Cpd 1 uM, T4J = 0.1 ug/ml, R = 0.01 ug/ml
  macrophage phagocytosis (untreated = 1.00): 3.05
Toledo Cells; triple combination: T4J, Rituximab and the small molecule
  phagocytic ability of macrophages: does not show the synergistic effects
Calreticulin; 0.008 uM
  Mean Fluorescence Intensity (MFI) Calreticulin: 68.6
Calreticulin; 0.04 uM
  Mean Fluorescence Intensity (MFI) Calreticulin: 70.1
Calreticulin; 0.2 uM
  Mean Fluorescence Intensity (MFI) Calreticulin: 70.2
Calreticulin; 1 uM
  Mean Fluorescence Intensity (MFI) Calreticulin: 76.3
Calreticulin; 5 uM
  Mean Fluorescence Intensity (MFI) Calreticulin: 86.2
CD47; 0.008 uM
  Mean Fluorescence Intensity (MFI) CD47: 9132
CD47; 0.04 uM
  Mean Fluorescence Intensity (MFI) CD47: 8684
CD47; 0.2 uM
  Mean Fluorescence Intensity (MFI) CD47: 8687
CD47; 1 uM
  Mean Fluorescence Intensity (MFI) CD47: 8319
CD47; 5 uM
  Mean Fluorescence Intensity (MFI) CD47: 9192
